row,SMILES,melting point [°C]
1,CCOC(=O)NNc1ccc(-c2ccc(C#N)cc2)nn1,235
2,CCc1cccc2c(C(=O)c3cccc(Cl)c3Cl)c(C)n(CCCS(=O)(=O)N(C)C)c12,18
3,COCc1cc(-c2c(S(C)(=O)=O)ccc(C(=O)C3C(=O)CCCC3=O)c2Cl)no1,39 to 40
4,CCOC(=O)c1cn(C2CC2)c2cc(Br)c(F)cc2c1=O,251 to 253
5,CC(C)(C)OC(=O)NC1CCC2(CC1)CSC1=C(O2)c2ccccc2C(=O)C1=O (centres undefined),224 to 225
6,CN(Cc1ccccc1)C(=O)CCC(=O)c1ccc(Cl)c(S(N)(=O)=O)c1,162
7,CCCC1=C(C(=O)OCC)C(c2cccc3c2OCCC3)c2c[nH]nc2N1 (centres undefined),159 to 161
8,CCCCCCCCCCCCCc1cc(C(=O)OCCBr)c[nH]1,67 to 69.5
9,CCCNC(=S)c1ccc2c(c1)N(C(C)CN(CC)CC)c1ccc(Cl)cc1S2 (racemic),130
10,COC(=O)CCCCCCCCCCCO,33.5 to 35
11,O=C(O)Cc1cc(S)n2ncnc2n1,283 to 286
12,Cc1ccc(N)c(C(=O)NCC(C)Cn2ccnc2)c1 (centres undefined),120 to 122
13,COc1cc2ccc(CC(=O)Cl)cc2cc1OC,51 to 62
14,CCCCCCCCCCCCCCCCCC1OCC(COC(O)CCC)O1 (centres undefined),34 to 44
15,CN1CCC(=C2c3ccccc3OCc3cc(Br)sc32)CC1,101 to 103
16,ClCC(CCl)(CCl)c1cc(Cl)nnc1Cl,111 to 112
17,"Cc1cc2c(c(C)c1NC(=O)NC(C)(C)C)C(c1ccc(C(C)C)cc1)CO2 (single isomer, unassigned; (+))",205 to 206
18,C#CCOC(=O)C1=C(C)NC(C)=C(C(=O)OCC)C1c1cccc([N+](=O)[O-])c1 (centres undefined),132 to 133
19,COc1cc([N+](=O)[O-])c(NCCO)c([N+](=O)[O-])c1,104
20,Cc1cccc(C)c1NC(=O)NC1(c2cccs2)CCCCC1,220 to 222
21,CCN1CCc2cc(Nc3ncc(Cl)c(N[C@@H]4CCCC[C@H]4NS(C)(=O)=O)n3)c(OC)cc2CC1=O,139 to 150
22,N#CSCCNc1ccc(Cl)cc1[N+](=O)[O-],154 to 155
23,S=C(Nc1cccc(Cl)c1)N1CCOC1C1CCCCC1 (centres undefined),117 to 119
24,CCCCCCCCCCCCCCCCCCOc1ccc2ccccc2c1O,58 to 59
25,N[C@@H]1Cc2c(Br)ccc3c2[C@@H](C1)CN3C(=O)c1ccccc1,169 to 173
26,COc1c(C(O)CNC(C)(C)Cc2ccccc2C)ccc(O)c1O (centres undefined),114
27,CCCNC(=O)CCc1ccc2c(c1)c(Cc1ccc(C(=O)O)cc1OC)cn2CCC,68 to 78

row,SMILES,melting point [°C]
1,NC(=O)c1cccc(Nc2ccncc2)c1,201 to 203
2,Nc1cccc2c(=O)[nH]sc12,161 to 165
3,Fc1cc2c(c(-c3c(Cl)cccc3Cl)c1)OC(CNCC1CC1)C2 (centres undefined),130 to 133
4,COc1ccc2c(c1O)C13CCNC(C2)C1CC(C)C(=O)C3 (centres undefined),163 to 165
5,COc1ccc(CSc2ccc(S(N)(=O)=O)s2)cc1,139 to 141
6,CCC(=O)NC[C@H]1CN(c2ccc(C3CCS(=O)(=O)CC3)c(F)c2)C(=O)O1,200 to 201
7,O=[N+]([O-])c1cc(Cl)c(Cl)cc1N[C@H]1C=C[C@@H](CO)C1,94.5 to 96.5
8,COc1ccc(OC)c(C2(C(C)(C)O)CCN(C)CC2)c1,139 to 140
9,C=CC(c1ncc([N+](=O)[O-])n1C)N(C)C (centres undefined),110 to 113
10,CC(O)c1ccc2c(c1)CCC(=O)N2 (centres undefined),174
11,COCC1CN(c2ccc(C3CCC(OC)CC3)cc2)C(=O)O1 (centres undefined),82 to 83
12,CS(=O)(=O)c1cccc(Br)c1,63 to 64
13,Cc1ccccc1COC1(C)COC(CCl)OC1 (centres undefined),57 to 58
14,CC(C)NCC(O)COc1cccc2nsnc12 (centres undefined),100 to 102
15,C=Cn1ccnc1C(O)(c1ccc(Cl)cc1)c1ccc(Cl)cc1,174
16,CC(=O)OC1CSC(Sc2cccc(C#N)c2)C(OC(C)=O)C1OC(C)=O (centres undefined),133
17,CC(=O)NC(CCCCN)C(=O)C(N)C(CC1(C(=O)NC2CCC(C(=O)O)CC2)CCCC1)C(=O)O (centres undefined),161 to 163
18,CC1CCOCC1C(C#N)=NO (centres undefined),94 to 96
19,O=[N+]([O-])c1cc(Br)ccc1Cl,65 to 67
20,CC(C)N(N)C(=O)N1CCCC1C(=O)OC(C)(C)C (centres undefined),87 to 91
21,Cc1ccc(S)c(C(=O)O)c1,56 to 58
22,CCNC(=O)NC(N)=O,158 to 160
23,CC1O[C@@](Cn2cncn2)(c2ccc(Cl)cc2Cl)[C@@H](C)N1S(C)(=O)=O (relative stereo),160 to 170
24,CCCCC#Cc1cc(C=CCC(=O)O)ccc1OC,102
25,C=CCn1c(NC)n[nH]c1=S,129 to 131
26,CCOc1ccc(Cc2cn(C3OC(COC(C)=O)C(OC(C)=O)C(OC(C)=O)C3OC(C)=O)c3cccc(F)c23)cc1 (centres undefined),146 to 148

# Further lines, results first:
row,melting point [°C],SMILES
1,204 to 206,N#Cc1ccc(Cc2ccc(-c3ccc(C#N)cn3)o2)cc1
2,> 300,Fc1ccc(-c2cnn3cnnc3n2)cc1
3,99 to 101,O=C(Cc1cccs1)c1c(O)sc2ccccc12
4,174 to 176,CC1c2cc(F)ccc2CCN1C(=O)c1cc2ncc(Br)cn2n1 (centres undefined)
5,294,Cn1nc(-c2ccc([N+](=O)[O-])o2)c2c(NO)ncnc21
6,185,Cn1ncnc1COc1nn2c(-c3ccccc3)nncc2c1-c1ccccc1
7,74 to 80,O=C(O)CCCc1cc2cc(Cl)ccc2n1S(=O)(=O)c1ccc2ncsc2c1
8,110 to 115,O=C(c1cc2cc(OCCNC[C@H](O)COc3ccccc3)ccc2[nH]1)N1CCCC1
9,135 to 137,O=C1CCC(N2Cc3c(OCc4ccc(CN5CCN(S(=O)(=O)C(F)(F)F)CC5)cc4)cccc3C2=O)C(=O)N1 (centres undefined)
10,158 to 162,FC(F)(F)c1ccc(-c2cc(Oc3ccc4cccnc4c3)nnc2Oc2ccc3cccnc3c2)cc1
11,261 to 262,Cc1cccc(C)c1NC(=O)CN1C(=O)C2(COc3cc4c(cc32)CCO4)c2ccccc21 (centres undefined)
12,133 to 134,Cc1ccccc1Oc1ccccc1C(=O)O
13,140 to 142,CC1(C)CN(CC=CC(=O)Nc2cc3c(Nc4ccc(F)c(Cl)c4)ncnc3cc2OCC2CC2)CC(=O)O1
14,223 to 226,CC(c1oc2ccccc2c(=O)c1-c1cccc(F)c1)n1nc(-c2cn[nH]c2)c2c(N)ncnc21 (centres undefined)
15,202 to 203,COc1cccc(Nc2n[nH]c3ncnc(Nc4cccc(Cl)c4)c23)c1
16,168 to 170,CNC(=O)c1ccc(C)c(-n2c(C)cc(OCc3ccccc3CNC(=O)Nc3cc(C(C)(C)C)nn3-c3cccc(OCCO)c3)c(Cl)c2=O)c1
17,170,CCCCc1nc2ncccc2n1Cc1ccc(-c2ccccc2C(=O)O)cc1
18,104 to 106,CC(Oc1ncn(-c2ccccc2Cl)n1)C(=O)O (centres undefined)
19,213 to 214,COc1cc(C=CC(=O)Nc2cnc3c(C)c(Cl)ccc3c2-c2ccccc2C)cc(OC)c1OC(C)=O
20,155 to 157,Cc1cc(C)cc(-c2cc(O)c(SCCc3ccccc3)c(=O)o2)c1
21,144 to 146,Cc1cc(NC(=O)c2ccccc2C)ccc1Br
22,149,COc1ccc(C(=O)c2cc(-c3cccnc3)c(N3CCOCC3)s2)cc1
23,215 to 219,Cc1cc(-c2ccc(S(C)(=O)=O)cc2)n(-c2ccc(-c3ccoc3)cc2)c1C

row,melting point [°C],SMILES
1,185 to 190,CN1c2ccc(-c3cccc4ccccc34)cc2Sc2cc(-c3cccc4ccccc34)ccc21
2,128 to 130,COC1C(OC(=O)c2ccccc2)C(COC(=O)c2ccccc2)OC1n1cc(C)c(=O)[nH]c1=O (centres undefined)
3,80 to 82,COC(=O)c1cc(N)cc(N)c1SCc1ccccc1
4,158 to 160,O=C(O)c1cccc(Oc2ccc(C(=O)c3ccc(F)cc3)cc2)c1
5,116 to 117,Cc1cc(Nc2ccn(-c3ccccc3)n2)cc(C)c1OC(=O)CC#N
6,179 to 181,Cc1nnc(-c2ccc3c(=O)n(CC(C)C)c(CN)c(-c4ccccc4)c3c2)o1
7,125 to 126,CC(C)Cc1cc(OCc2ccccc2)c2c(c1)OC(C)(C)CC2C(=O)Oc1ccc([N+](=O)[O-])cc1 (centres undefined)
8,178 to 179,O=C(O)c1ccc(Cn2ncc3ccccc32)cc1
9,150 to 151,CCOC(=O)c1cn(-c2ccccc2)nc1OCc1ccc(OCc2nc(-c3ccco3)oc2C)c(OC)c1
10,220 to 221,CNC(=O)c1ccccc1Nc1nc(Nc2ccc3c(c2)COCC2CCCCN32)ncc1Cl (centres undefined)
11,71 to 73,Cc1cnc2oc(-c3ccccc3)nc2c1
12,89 to 91,C[C@H](NC(=O)OCc1ccccc1)C(=O)c1ccc(OCc2ccccc2)cc1
13,114 to 117,N#CCCNC(=O)c1cccc(-c2cccc3c2CN(Cc2cccc(C(F)(F)F)c2)CC3)c1
14,85 to 88,COc1ccc(C(F)(F)F)cc1-c1ccc(S(=O)(=O)N2c3ccccc3CC2C(=O)NCCOc2ccc(CC(=O)O)cc2)cc1 (centres undefined)
15,119 to 120,Cc1oc(-c2ccccc2)nc1COc1ccc(Cc2nc(CCC(=O)O)c(-c3ccccc3)s2)cc1
16,70 to 72,Cc1ccc(C)c2cc3ccccc3cc12
17,195 to 196,CCc1ccc(NS(=O)(=O)c2ccc(N3CCNC3=O)cc2)cc1
18,186 to 188,c1ccc(-c2cc3c(N4CCOCC4)nnc(N4CCOCC4)c3cn2)cc1
19,110 to 111,CC(C)(C)CC(C)(C)NC(=O)C1=C(c2ccccc2)C(c2ccccc2)OC1=O (centres undefined)
20,125 to 127,CCN(C1CCN(Cc2ccccc2)C1)S(=O)(=O)c1ccc(Nc2nccc(Nc3ccc(F)cc3)n2)cc1 (centres undefined)
21,147 to 150,O=C(NC[C@H]1CN(c2ccc3c(c2)CCCc2cn[nH]c2-3)C(=O)O1)C(F)F
22,142 to 145,O=C1OC2(CC(c3ccc(F)cc3)=NO2)c2ccccc21 (centres undefined)
23,146 to 147,COc1cc(COc2cc(CO)n(-c3ccccc3)n2)ccc1OCc1nc(-c2ccccc2)oc1C

# Source: a melting point compilation (Tetko et al.; mined from patent text by program, amines drawn as free bases though some values may be those of a salt)
